Data as given in US20250353891A1 (MEDIMMUNE LIMITED, priority 2022, published 2025).
pEC50: −log10 of the molar value. Starred links: 1 amine or outer side, 2 acyl side, 3 side chain; linkers in the order of their positions; H or OH if unused. Non-standard residues stand in square brackets, D forms with d. Residues, ends and D or L forms follow the SMILES beside them. Groups on a side chain read outwards from the residue. *: point of attachment. C18 diacid = O=C(O)CCCCCCCCCCCCCCCCC(=O)*; γGlu = O=C(O)[C@H](CCC(=O)[*:2])N[*:1]; αMeF = C[C@](N)(Cc1ccccc1)C(=O)O; Aib = CC(C)(N)C(=O)O

Key:
[1] = Proteolytic resistance to FasSSIF/Pancreatin; assay type: in vitro ADME; settings: simulated intestinal fluid
Summary of the method: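 Peptide (1.0 mg) in pre-warmed FasSSIF, proteolysis started with fresh FasSSIF/USP Pancreatin and held at 37 °C. Aliquots at 0, 5, 10, 15, 30 min quenched in 10% TFA; remaining intact peptide estimated by RP-HPLC peak area, UV 210 nm.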

[2] = biological target: human GLP-1 receptor (hGLP-1R) (Homo sapiens, UniProt P43220); experiment: cAMP production (HTRF) in CHO cells expressing hGLP-1R; assay type: cell-based; set-up: expressed in transfected cells
Sequence of human GLP-1 receptor (hGLP-1R) (P43220 24-463): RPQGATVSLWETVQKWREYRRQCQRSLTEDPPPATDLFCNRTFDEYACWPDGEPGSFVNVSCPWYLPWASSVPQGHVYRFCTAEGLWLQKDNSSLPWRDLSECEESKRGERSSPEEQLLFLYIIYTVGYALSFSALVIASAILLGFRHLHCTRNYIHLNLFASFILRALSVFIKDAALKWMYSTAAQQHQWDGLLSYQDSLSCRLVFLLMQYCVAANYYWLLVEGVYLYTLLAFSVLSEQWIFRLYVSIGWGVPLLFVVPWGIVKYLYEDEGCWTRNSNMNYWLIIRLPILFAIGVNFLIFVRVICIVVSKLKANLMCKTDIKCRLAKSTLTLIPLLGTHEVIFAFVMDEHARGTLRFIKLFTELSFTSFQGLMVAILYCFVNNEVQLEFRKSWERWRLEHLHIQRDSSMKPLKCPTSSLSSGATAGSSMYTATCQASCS
Summary of the method: (§1)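 Cells were resuspended in assay buffer at batch-optimized density, typically 1×10^5 cells/mL for hGLP-1R and 2×10^5 cells/mL for hGCGR. After 30 min incubation at room temperature with compound, cAMP was measured by two-step HTRF. EC50 values came from 4-parameter logistic fits of % Delta F.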

[3] = biological target: human glucagon receptor (hGCGR) (Homo sapiens, UniProt P47871); experiment: cAMP production (HTRF) in CHO cells expressing hGCGR; assay type: cell-based; set-up: expressed in transfected cells; settings: Table 6, peptides modified at position 17; cAMP in CHO hGCGR cells; geometric mean; read-out: hGluc-R EC50
Sequence of human glucagon receptor (hGCGR) (P47871 26-477): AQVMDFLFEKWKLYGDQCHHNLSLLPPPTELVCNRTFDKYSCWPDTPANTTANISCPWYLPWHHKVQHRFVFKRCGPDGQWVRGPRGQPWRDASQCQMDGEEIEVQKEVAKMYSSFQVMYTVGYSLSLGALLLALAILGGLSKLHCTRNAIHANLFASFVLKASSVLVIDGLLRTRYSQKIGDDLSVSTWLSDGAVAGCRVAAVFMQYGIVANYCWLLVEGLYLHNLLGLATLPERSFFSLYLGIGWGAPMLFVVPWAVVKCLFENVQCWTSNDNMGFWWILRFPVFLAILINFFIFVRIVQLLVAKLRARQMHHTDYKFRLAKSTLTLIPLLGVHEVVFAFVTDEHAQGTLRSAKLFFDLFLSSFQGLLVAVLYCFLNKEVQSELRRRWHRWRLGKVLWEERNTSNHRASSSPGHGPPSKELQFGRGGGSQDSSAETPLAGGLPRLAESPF
Summary of the method: as §1

## CC[C@H](C)[C@H](NC(=O)[C@H](Cc1c[nH]c2ccccc12)NC(=O)[C@H](CCC(=O)O)NC(=O)[C@@H](NC(=O)[C@](C)(Cc1ccccc1)NC(=O)[C@H](CC(=O)O)NC(=O)[C@H](CCC(N)=O)NC(=O)[C@H](C)NC(=O)[C@H](C)NC(=O)[C@H](CCCCNC(=O)CC[C@H](NC(=O)CCCCCCCCCCCCCCCCC(=O)O)C(=O)O)NC(=O)[C@H](CO)NC(=O)[C@H](CC(=O)O)NC(=O)[C@H](CC(C)C)NC(=O)[C@](C)(Cc1ccccc1)NC(=O)[C@H](CCCCN)NC(=O)[C@H](CO)NC(=O)[C@@H](NC(=O)[C@H](CC(=O)O)NC(=O)[C@H](CO)NC(=O)[C@@H](NC(=O)[C@](C)(Cc1ccccc1)NC(=O)[C@H](CO)NC(=O)CNC(=O)[C@H](Cc1c[nH]cn1)NC(=O)C(C)(C)NC(=O)[C@@H](N)Cc1c[nH]cn1)[C@@H](C)O)C(C)C)C(C)C)C(=O)N[C@@H](C)C(=O)N[C@@H](CC(N)=O)C(=O)N[C@H](C(N)=O)[C@@H](C)O [Peptide 7] (H-H[Aib]HGS[αMeF]TSDVSK[αMeF]LDSK([γGlu-C18 diacid])AAQD[αMeF]VEWIANT-NH2; N-terminus assumed)
[1]
  remaining at 5 min, 3.3 mg/mL: 96%
  remaining at 10 min, 3.3 mg/mL: 98%
  remaining at 0.25 h, 3.3 mg/mL: 96%
  remaining at 0.5 h, 3.3 mg/mL: 94%
[2]; Table 6, peptides modified at position 17, cAMP in CHO hGLP-1R cells, geometric mean, read-out: hGLP-1R EC50
  pEC50: 10.07
[2]; Table 6, % GLP-1R activity relative to GLP-1 / % GlucR activity relative to glucagon
  % Relative Potency Ratio: 0.7
[3]
  pEC50: 10.51
